Experiments:
Format in all cases: functional
[1] = system: Staphylococcus epidermidis; test: Antibacterial activity against penicillin-resistant Staphylococcus epidermidis clinical isolate after 24 hrs by broth microdilution method
Streptococcus pyogenes [2] = test: Potency index, ratio of ciprofloxacin MIC to test compound MIC for penicillin-resistant Streptococcus pyogenes
Staphylococcus aureus [3] = test: Potency index, ratio of oxacillin sodium MIC to test compound MIC for methicillin-resistant Staphylococcus aureus ATCC 43300
Staphylococcus aureus [4] = test: Bactericidal activity against penicillin-susceptible Staphylococcus aureus ATCC 25923 assessed as bacterial levels at 8 ug/ml after 6 hrs by time-kill assay (reference value: 6.13 to 7.54 log10CFU/ml)
Staphylococcus aureus [5] = test: Bactericidal activity against penicillin-susceptible Staphylococcus aureus ATCC 25923 assessed as bacterial levels at 16 ug/ml after 12 hrs by time-kill assay (reference value: 6.13 to 8.01 log10CFU/ml)
Streptococcus pyogenes [6] = test: Potency index, ratio of oxacillin sodium MIC to test compound MIC for penicillin-susceptible Streptococcus pyogenes
Staphylococcus aureus [7] = test: Antibacterial activity against penicillin-resistant Staphylococcus aureus clinical isolate after 24 hrs by broth microdilution method
Bacillus pumilus [8] = test: Potency index, ratio of oxacillin sodium MIC to test compound MIC for penicillin-susceptible penicillin-susceptible Bacillus pumilus ATCC 63202
Staphylococcus aureus [9] = test: Bactericidal activity against penicillin-susceptible Staphylococcus aureus ATCC 25923 assessed as bacterial levels at 32 ug/ml after 6 hrs by time-kill assay (reference value: 6.13 to 7.54 log10CFU/ml)
Staphylococcus aureus [10] = test: Potency index, ratio of oxacillin sodium MIC to test compound MIC for penicillin-susceptible Staphylococcus aureus ATCC 25923
Staphylococcus aureus [11] = test: Bactericidal activity against penicillin-susceptible Staphylococcus aureus ATCC 25923 assessed as bacterial levels at 16 ug/ml after 4 hrs by time-kill assay (reference value: 6.13 to 6.71 log10CFU/ml)
Staphylococcus aureus [12] = test: Bactericidal activity against penicillin-susceptible Staphylococcus aureus ATCC 25923 assessed as bacterial levels at 16 ug/ml after 2 hrs by time-kill assay (reference value: 6.13 to 6.17 log10CFU/ml)
Bacillus pumilus [13] = test: Antibacterial activity against penicillin-susceptible Bacillus pumilus ATCC 63202 after 24 hrs by broth microdilution method; details: ATCC 63202, 24 h
Staphylococcus aureus [14] = test: Antibacterial activity against penicillin-susceptible Staphylococcus aureus ATCC 25923 after 24 hrs by broth microdilution method; details: ATCC 25923, 24 h
[15] = system: Staphylococcus epidermidis; test: Potency index, ratio of oxacillin sodium MIC to test compound MIC for penicillin-resistant Staphylococcus epidermidis clinical isolate
Staphylococcus aureus [16] = test: Bactericidal activity against penicillin-susceptible Staphylococcus aureus ATCC 25923 after 24 hrs by flat colony counting method; details: ATCC 25923, 24 h
Staphylococcus aureus [17] = test: Bactericidal activity against penicillin-susceptible Staphylococcus aureus ATCC 25923 assessed as bacterial levels at 32 ug/ml after 2 hrs by time-kill assay (reference value: 6.13 to 6.17 log10CFU/ml)
Staphylococcus aureus [18] = test: Bactericidal activity against penicillin-susceptible Staphylococcus aureus ATCC 25923 assessed as bacterial levels at 32 ug/ml after 12 hrs by time-kill assay (reference value: 6.13 to 8.01 log10CFU/ml)
Escherichia coli = test: Antibacterial activity against penicillin-susceptible Escherichia coli ATCC 25922 after 24 hrs by broth microdilution method; details: ATCC 25922, 24 h

Cc1cc(-c2ccc(C(F)(F)F)cc2)cc2c3ccccc3c[n+](C)c12.[Cl-]
MIC [1]: 0.125 mg/L | Ratio (Streptococcus pyogenes [2]): 32 | Ratio (Staphylococcus aureus [3]): 256 | Activity (Staphylococcus aureus [4]): 6.07 log10CFU/ml | Activity (Staphylococcus aureus [5]): 4 log10CFU/ml | Ratio (Streptococcus pyogenes [6]): 1 | MIC (Staphylococcus aureus [7]): 0.25 mg/L | Ratio (Bacillus pumilus [8]): 533 | Activity (Staphylococcus aureus [9]): 0 log10CFU/ml | Ratio (Staphylococcus aureus [10]): 67 | Activity (Staphylococcus aureus [11]): 5.75 log10CFU/ml | Activity (Staphylococcus aureus [12]): 6 log10CFU/ml | MIC (Bacillus pumilus [13]): 0.06 mg/L | MIC (Staphylococcus aureus [14]): 0.06 mg/L | Ratio [15]: 512 | MBC (Staphylococcus aureus [16]): 16 mg/L | Activity (Staphylococcus aureus [17]): 5.18 log10CFU/ml | Activity (Staphylococcus aureus [18]): 0 log10CFU/ml | MIC (Escherichia coli): > 64 mg/L

From ChEMBL document CHEMBL4118132, “Novel 5-methyl-2-phenylphenanthridium derivatives as FtsZ-targeting antibacterial agents from structural simplification of natural product sanguinarine” (2018)
